From US12084451B2, “Compositions and methods for reducing tactile dysfunction, anxiety, and social impairment” (President and Fellows of Harvard College, priority 2018, dated 2024)

How the values were obtained:
Type in all cases: cell-based
hGABAA α2β3γ2 = hGABAA α2β3γ2 (Homo sapiens, UniProt P18507+P28472+P47869); test: hGABAA IonFlux HT PAM Assay, α2β3γ2; details: for Mean Maximal Effect (% of Control): normalized to baseline peak current induced by EC20 GABA (0.8 μM) for 2 seconds
Excerpt: (§1) Ligand-gated ion channels targeted were hGABAA α1β3γ2 and hGABAA α2β3γ2.
(§2) Electrophysiological assays conducted to profile nine (9) compounds for activities on the on channel targets listed above for Positive Allosteric Modulator (PAM) activities using the IonFlux HT electrophysiological platform.
The parameters measured are described in the Data Analysis section. […] Open circles represent data that has been excluded from the curve fitting. Where no curve fit was possible, n/c (not calculable) is listed.
(§3) All wells included a final DMSO concentration of 0.33% including all control wells.
(§4) All recordings were obtained from a holding potential of −60 mV. The compound addition sequence that was used for all additions was the same for all assays. […] The process was repeated with the next ascending concentration of test compound (FIG. 1).
(§5) All data were first exported to an Excel compatible data file and then analyzed using Graph Pad Prism software.

hGABAA α1β3γ2 [1] = target: T1, hGABAA α1β3γ2 (Homo sapiens, UniProt P14867+P18507+P28472); test: hGABAA IonFlux HT PAM Assay, α1β3γ2; details: for Mean Maximal Effect (% of Control): normalized to baseline peak current induced by EC20 GABA (1 μM) for 2 seconds
Excerpt: as §1, §2
The parameters measured are described in the Data Analysis section.
as §3, §4, §5

hGABAA α1β3γ2 [2] = target: T1, hGABAA α1β3γ2; test: hGABAA α1β3γ2 IonFlux HT Agonist Assay; design: activation of hGABAA α1β3γ2 ion channel currents / activation: dose or concentration left out as unconfirmed; details: for EC50: agonist activation of channel currents, read-out: Estimated EC50
Description: Ligand-gated ion channel targets were hGABAA α2β3γ2 and hGABAA α1β3γ2. Electrophysiological assays conducted to profile two compounds for agonist activities on hGABAA α2β3γ2 and seven compounds for agonist activities on hGABAA α1β3γ2 using the IonFlux HT electrophysiological platform.
The parameters measured are described in the Data Analysis section. […] Note: The test compounds was applied over two (2) ‘experimental patterns’ in increasing concentrations.
The supplied compound was prepared in DMSO to concentrations that were 300× the final assay concentrations. Aliquots were taken out and diluted 300× into external buffer to give the final assay concentration. At wells included a final DMSO concentration of 0.33% including all control wets.
All recordings were obtained from a holding potential of −60 mV. The compound addition sequence that was used for all additions was the same for all assays. […] Each test concentration of compound was applied for 2 seconds followed by 60 seconds wash. The process was repeated with the next ascending concentration of test compound. The test compounds were applied over two (2) ‘experimental patterns’ in increasing concentrations (FIG. 11).
AM data were first exported to an Excel compatible data file and then analyzed using Graph Pad Prism software.

[3] = read-out: Normalized Percentage Activation Mean
[4] = positive modulation of EC20 GABA current

hGABAA α2β3γ2, sequence (P47869 29-451): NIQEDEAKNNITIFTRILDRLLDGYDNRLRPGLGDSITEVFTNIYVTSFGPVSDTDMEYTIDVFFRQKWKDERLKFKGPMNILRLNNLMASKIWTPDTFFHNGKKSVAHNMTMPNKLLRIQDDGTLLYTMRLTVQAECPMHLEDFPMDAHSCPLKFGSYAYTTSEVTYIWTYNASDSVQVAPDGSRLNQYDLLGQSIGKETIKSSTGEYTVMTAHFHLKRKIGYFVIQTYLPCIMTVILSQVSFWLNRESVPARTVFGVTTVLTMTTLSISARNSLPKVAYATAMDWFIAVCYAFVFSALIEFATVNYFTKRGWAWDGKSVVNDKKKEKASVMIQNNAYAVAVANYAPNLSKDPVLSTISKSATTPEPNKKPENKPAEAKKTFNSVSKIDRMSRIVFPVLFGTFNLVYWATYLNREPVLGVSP
hGABAA α2β3γ2, sequence (P28472 26-473): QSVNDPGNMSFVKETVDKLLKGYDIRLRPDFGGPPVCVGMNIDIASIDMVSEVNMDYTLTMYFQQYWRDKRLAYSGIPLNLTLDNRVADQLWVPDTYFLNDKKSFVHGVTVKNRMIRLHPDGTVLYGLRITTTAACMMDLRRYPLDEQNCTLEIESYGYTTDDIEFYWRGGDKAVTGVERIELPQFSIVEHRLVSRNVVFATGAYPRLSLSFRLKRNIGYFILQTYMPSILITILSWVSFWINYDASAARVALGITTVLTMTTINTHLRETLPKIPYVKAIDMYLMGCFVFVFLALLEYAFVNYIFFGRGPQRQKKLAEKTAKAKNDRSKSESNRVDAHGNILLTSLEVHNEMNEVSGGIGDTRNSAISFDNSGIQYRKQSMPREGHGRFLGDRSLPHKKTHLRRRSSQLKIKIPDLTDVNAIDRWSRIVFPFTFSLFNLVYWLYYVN
hGABAA α2β3γ2, sequence (P18507 40-475): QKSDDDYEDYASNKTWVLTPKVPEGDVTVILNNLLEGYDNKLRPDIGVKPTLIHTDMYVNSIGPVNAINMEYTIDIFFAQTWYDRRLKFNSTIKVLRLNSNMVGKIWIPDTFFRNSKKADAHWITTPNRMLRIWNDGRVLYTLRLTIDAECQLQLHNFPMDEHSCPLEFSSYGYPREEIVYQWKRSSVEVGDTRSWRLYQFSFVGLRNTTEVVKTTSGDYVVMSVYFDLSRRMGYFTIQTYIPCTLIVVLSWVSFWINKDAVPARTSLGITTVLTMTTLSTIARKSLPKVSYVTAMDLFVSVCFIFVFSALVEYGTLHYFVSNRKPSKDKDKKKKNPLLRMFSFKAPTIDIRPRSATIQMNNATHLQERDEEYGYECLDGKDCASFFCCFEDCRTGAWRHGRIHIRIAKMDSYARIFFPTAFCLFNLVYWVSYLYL
T1 sequence (P14867 28-456): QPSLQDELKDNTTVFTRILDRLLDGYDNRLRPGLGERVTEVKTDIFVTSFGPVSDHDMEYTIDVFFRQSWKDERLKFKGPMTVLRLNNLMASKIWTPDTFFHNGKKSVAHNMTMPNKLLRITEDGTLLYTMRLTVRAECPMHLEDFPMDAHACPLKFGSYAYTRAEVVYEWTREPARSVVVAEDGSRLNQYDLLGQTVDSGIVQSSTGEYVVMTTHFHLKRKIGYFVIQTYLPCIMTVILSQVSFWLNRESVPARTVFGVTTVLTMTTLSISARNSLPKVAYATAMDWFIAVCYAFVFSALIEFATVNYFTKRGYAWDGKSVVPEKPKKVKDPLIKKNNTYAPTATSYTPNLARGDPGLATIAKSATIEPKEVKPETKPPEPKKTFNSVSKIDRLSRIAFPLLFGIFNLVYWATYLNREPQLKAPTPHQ
T1 sequence (P28472 26-473): as the sequence (P28472 26-473) above
T1 sequence (P18507 40-475): as the sequence (P18507 40-475) above

Row | EC50 (hGABAA α2β3γ2; read-out: Estimated EC50) | EC50 (hGABAA α1β3γ2 [1]; read-out: Estimated EC50) | activation at 10000 µM (hGABAA α1β3γ2 [2]; [3]) | SMILES | Mean Maximal Effect (% of Control) (hGABAA α2β3γ2) | Mean Maximal Effect (% of Control) (hGABAA α1β3γ2 [1]) | activation of hGABAA α1β3γ2 ion channel currents (hGABAA α1β3γ2 [2]) | EC50 (hGABAA α1β3γ2 [2]) | activation at 0.3 µM (hGABAA α1β3γ2 [2]; [3]) | activation at 1 µM (hGABAA α1β3γ2 [2]; [3]) | activation at 3 µM (hGABAA α1β3γ2 [2]; [3]) | activation at 10 µM (hGABAA α1β3γ2 [2]; [3]) | activation at 30 µM (hGABAA α1β3γ2 [2]; [3]) | activation at 100 µM (hGABAA α1β3γ2 [2]; [3]) | activation at 300 µM (hGABAA α1β3γ2 [2]; [3]) | Estimated EC50 (hGABAA α2β3γ2; [4]) | Estimated EC50 (hGABAA α1β3γ2 [1]; [4]) | activation (hGABAA α1β3γ2 [2]; [3])
1 | 8.7 µM | 3.16 µM | 2.38% | CCN(CCNC)C(=O)CC1c2nccnc2C(=O)N1c1ccc(Cl)cn1 (stereo not shown) [Compound 5] | 126 % of Control | 136 % of Control | did not activate | > 1000 µM | 2.54% | 2.02% | 2.28% | 2.45% | 3.08% | 3.75% | 2.7% |  |  | 
2 |  |  |  | CN(C)CCN(C)C(=O)CC1c2nccnc2C(=O)N1c1ccc(Cl)cn1 (stereo not shown) [Compound 6] | 122 % of Control | 130 % of Control | did not activate | > 1000 µM | 1.59% | 2.06% | 1.9% | 1.89% | 1.74% | 1.95% | 2.19% | n/c | n/c | 2.08%
